In US10376520B2, “Methods for the treatment of cardiovascular disorders” (Galapagos NV, priority 2015, dated 2019):

Tested on: RA patients
Test: LDL determination, Study 1 (RA patients, add-on to MTX)
Assay type: in vivo, human
Settings: for [LDL] Mean percentage CFB - 24 weeks results: 200 mg q.d. continued over 24 weeks; for [LDL] Mean CFB / [LDL] Median CFB: Study 1 12 weeks results
Method: Double-blind, placebo-controlled add on study in subjects with moderately to severely active RA who have an inadequate response to methotrexate (MTX) (oral or parenteral).
595 subjects randomized to one of 6 dose regimens of Compound 1 (dosed as a [Compound 1:HCl:3H2O]) (3 dose levels administered either once or twice daily) or placebo on top of each subject's stable dose of MTX.
Compound 1 (dosed as a [Compound 1:HCl:3H2O]) is dosed for twelve weeks once daily (q.d.) (50 mg, 100 mg or 200 mg) or twice daily (b.i.d.) (25 mg, 50 mg or 100 mg); or placebo.
At Week 12, the subjects on placebo who have not achieved 20% improvement in swollen joint count (SJC66) and tender joint count (TJC68) are re-randomized automatically to receive Compound 1 (dosed as a [Compound 1:HCl:3H2O]) either at 100 mg q.d. or 50 mg b.i.d. doses in a blinded fashion; subjects on 50 mg q.d. who have not achieved 20% improvement in SJC66 and TJC68 will be assigned to 100 mg q.d. and subjects on 25 mg b.i.d. that have not achieved a 20% improvement in SJC66 and TJC68 will be assigned to 50 mg b.i.d. Subjects who switch treatment at week 12 are handled as if they discontinued at week 12 for the purpose of statistical analysis, whereas subjects in the other groups will maintain their randomized treatment until Week 24.
The determination of [LDL]-cholesterol is made using an automated method taking advantage of the selective micellary solubilization of [LDL]-cholesterol by a nonionic detergent and the interaction of a sugar compound and lipoproteins (VLDL and chylomicrons).
When a detergent is included in the enzymatic method for cholesterol determination (cholesterol esterase, cholesterol oxidase coupling reaction), the relative reactivities of cholesterol in the lipoprotein fractions increase in this order: [HDL]<chylomicrons <VLDL <[LDL]. In the presence of Mg^2+, a sugar compound markedly reduces the enzymatic reaction of the cholesterol measurement in VLDL and chylomicrons. The combination of a sugar compound with detergent enables the selective determination of [LDL]-cholesterol in serum. (Friedewald et al., 1972; Rifai et al., 1992)
Homogeneous enzymatic colorimetric assay.
In the presence of peroxidase, the hydrogen peroxide generated reacts with 4-aminoantipyrine and Sodium N-(2-hydroxy-3-sulfopropyl)-3,5-dimethoxyaniline (HSDA) to form a purple-blue dye.
The color intensity of this dye is directly proportional to the cholesterol concentration and is measured photometrically.
Human serum and plasma samples [LDL] determination was done on a Roche/Hitachi Cobas c 701/702 system which automatically calculate the analyte concentration of each sample. Samples containing precipitates are centrifuged before performing the assay.

Compound: O=C(Nc1nc2cccc(-c3ccc(CN4CCS(=O)(=O)CC4)cc3)n2n1)C1CC1 [Compound 1, cyclopropanecarboxylic acid {5-[4-(1,1-dioxo-thiomorpholin-4-ylmethyl)-phenyl]-[1,2,4]triazolo[1,5-a]pyridin-2yl}-amide]
- [LDL] Mean percentage CFB - 12 weeks results (200 mg q.d. (N = 86), week 1): 6%
- [LDL] Mean percentage CFB - 12 weeks results (200 mg q.d. (N = 86), week 2): 6%
- [LDL] Mean percentage CFB - 12 weeks results (200 mg q.d. (N = 86), week 4): 6%
- [LDL] Mean percentage CFB - 12 weeks results (200 mg q.d. (N = 86), week 8): 8%
- [LDL] Mean percentage CFB - 12 weeks results (200 mg q.d. (N = 86), week 12): 8%
- [LDL] Mean percentage CFB - 24 weeks results (week 1): 6.34%
- [LDL] Mean percentage CFB - 24 weeks results (week 2): 5.81%
- [LDL] Mean percentage CFB - 24 weeks results (week 4): 5.97%
- [LDL] Mean percentage CFB - 24 weeks results (week 8): 7.93%
- [LDL] Mean percentage CFB - 24 weeks results (week 12): 7.96%
- [LDL] Mean percentage CFB - 24 weeks results (week 16): 7.99%
- [LDL] Mean percentage CFB - 24 weeks results (week 20): 8.85%
- [LDL] Mean percentage CFB - 24 weeks results (week 24): 7.78%
- [LDL] Mean percentage CFB - 12 weeks results (2 x 25 mg b.i.d. (N = 86), week 1): 3%
- [LDL] Mean percentage CFB - 12 weeks results (2 x 25 mg b.i.d. (N = 86), week 2): 4%
- [LDL] Mean percentage CFB - 12 weeks results (2 x 25 mg b.i.d. (N = 86), week 4): 3%
- [LDL] Mean percentage CFB - 12 weeks results (2 x 25 mg b.i.d. (N = 86), week 8): 2%
- [LDL] Mean percentage CFB - 12 weeks results (2 x 25 mg b.i.d. (N = 86), week 12): 6%
- [LDL] Mean percentage CFB - 12 weeks results (2 x 50 mg b.i.d. (N = 85), week 1): 4%
- [LDL] Mean percentage CFB - 12 weeks results (2 x 50 mg b.i.d. (N = 85), week 2): 3%
- [LDL] Mean percentage CFB - 12 weeks results (2 x 50 mg b.i.d. (N = 85), week 4): 7%
- [LDL] Mean percentage CFB - 12 weeks results (2 x 50 mg b.i.d. (N = 85), week 8): 5%
- [LDL] Mean percentage CFB - 12 weeks results (2 x 50 mg b.i.d. (N = 85), week 12): 2%
- [LDL] Mean percentage CFB - 12 weeks results (2 x 100 mg b.i.d. (N = 84), week 1): 8%
- [LDL] Mean percentage CFB - 12 weeks results (2 x 100 mg b.i.d. (N = 84), week 2): 6%
- [LDL] Mean percentage CFB - 12 weeks results (2 x 100 mg b.i.d. (N = 84), week 4): 8%
- [LDL] Mean percentage CFB - 12 weeks results (2 x 100 mg b.i.d. (N = 84), week 8): 13%
- [LDL] Mean percentage CFB - 12 weeks results (2 x 100 mg b.i.d. (N = 84), week 12): 12%
- [LDL] Mean CFB (50 mg q.d., week 1): -0.01 mmol/L
- [LDL] Median CFB (50 mg q.d., week 1): -0.01 mmol/L
- [LDL] Mean CFB (50 mg q.d., week 2): 0.02 mmol/L
- [LDL] Median CFB (50 mg q.d., week 2): 0.02 mmol/L
- [LDL] Mean CFB (50 mg q.d., week 4): 0.01 mmol/L
- [LDL] Median CFB (50 mg q.d., week 4): -0.01 mmol/L
- [LDL] Mean CFB (50 mg q.d., week 8): 0.06 mmol/L
- [LDL] Median CFB (50 mg q.d., week 8): 0.07 mmol/L
- [LDL] Mean CFB (50 mg q.d., week 12): 0.14 mmol/L
- [LDL] Median CFB (50 mg q.d., week 12): 0.13 mmol/L
- [LDL] Mean CFB (100 mg q.d., week 1): 0.11 mmol/L
- [LDL] Median CFB (100 mg q.d., week 1): 0.1 mmol/L
- [LDL] Mean CFB (100 mg q.d., week 2): 0.01 mmol/L
- [LDL] Median CFB (100 mg q.d., week 2): 0.02 mmol/L
- [LDL] Mean CFB (100 mg q.d., week 4): 0.13 mmol/L
- [LDL] Median CFB (100 mg q.d., week 4): 0.13 mmol/L
- [LDL] Mean CFB (100 mg q.d., week 8): 0.03 mmol/L
- [LDL] Median CFB (100 mg q.d., week 8): 0.05 mmol/L
- [LDL] Mean CFB (100 mg q.d., week 12): 0.13 mmol/L
- [LDL] Median CFB (100 mg q.d., week 12): 0.13 mmol/L
- [LDL] Mean CFB (200 mg q.d., week 1): 0.16 mmol/L
- [LDL] Median CFB (200 mg q.d., week 1): 0.16 mmol/L
